# Measurements as given in PubChem BioAssay AID1963835 (Molecular Pharmacology Branch, DTP, NCI, 2024).
# System: 699152-130-R-J1-PDC complex spheroid viability
# Assay: Anticancer human tumor 699152-130-R-J1-PDC patient-derived pancreatic carcinoma cell line growth inhibition [POLQ]
# Conditions: for IC50: curve of first compound; for viability, T/C: stronger effect = lower value
# How it was run: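 Patient-derived tumour cells were co-cultured with HUVEC and mesenchymal stem cells as multicellular spheroids at 37 °C. They were treated with POLQ inhibitors (novobiocin, ART-558, RP6685) alone or combined with other agents. Top concentrations were at or near clinical Cmax (otherwise 10 microM; SN-38 at 1 microM), decreasing in half-log steps.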
# [1] = second compound 0.0316 µM, first compound 0.0316 µM
# [2] = second compound 0.0316 µM, first compound 0.1 µM
# [3] = second compound 0.0316 µM, first compound 0.316 µM
# [4] = second compound 0.0316 µM, first compound 1 µM
# [5] = second compound 0.0316 µM, first compound 3.16 µM
# [6] = second compound 0.0316 µM, first compound 10 µM
# [7] = second compound 0.1 µM, first compound 0.0316 µM
# [8] = second compound 0.1 µM, first compound 0.1 µM
# [9] = second compound 0.1 µM, first compound 0.316 µM
# [10] = second compound 0.1 µM, first compound 1 µM
# [11] = second compound 0.1 µM, first compound 3.16 µM
# [12] = second compound 0.1 µM, first compound 10 µM
# [13] = second compound 0.316 µM, first compound 0.0316 µM
# [14] = second compound 0.316 µM, first compound 0.1 µM
# [15] = second compound 0.316 µM, first compound 0.316 µM
# [16] = second compound 0.316 µM, first compound 1 µM
# [17] = second compound 0.316 µM, first compound 3.16 µM
# [18] = second compound 0.316 µM, first compound 10 µM
# [19] = second compound 1 µM, first compound 0.0316 µM
# [20] = second compound 1 µM, first compound 0.1 µM
# [21] = second compound 1 µM, first compound 0.316 µM
# [22] = second compound 1 µM, first compound 1 µM
# [23] = second compound 1 µM, first compound 3.16 µM
# [24] = second compound 1 µM, first compound 10 µM
# [25] = second compound 3.16 µM, first compound 0.0316 µM
# [26] = second compound 3.16 µM, first compound 0.1 µM
# [27] = second compound 3.16 µM, first compound 0.316 µM
# [28] = second compound 3.16 µM, first compound 1 µM
# [29] = second compound 3.16 µM, first compound 3.16 µM
# [30] = second compound 3.16 µM, first compound 10 µM
# [31] = second compound 10 µM, first compound 0.0316 µM
# [32] = second compound 10 µM, first compound 0.1 µM
# [33] = second compound 10 µM, first compound 0.316 µM
# [34] = second compound 10 µM, first compound 1 µM
# [35] = second compound 10 µM, first compound 3.16 µM
# [36] = second compound 10 µM, first compound 10 µM
# 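Note: spheroids exposed to agents for 7 days before viability reading.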
# 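Throughout, for viability, T/C: percent of DMSO vehicle control viability so 100% = vehicle and 0% = no viable signal.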
structure (smiles),measurement,setting,value
Nc1ccn(C2OC(CO)C(O)C2(F)F)c(=O)n1 (stereo not drawn) + Cc1cccc(N(C)C(=O)C2C(O)CCN2c2nc(C)cc(C(F)(F)F)c2C#N)c1,IC50,second compound 0.0316 µM,958 nM
same,IC50,second compound 0.1 µM,408 nM
same,IC50,second compound 0.316 µM,468 nM
same,IC50,second compound 1 µM,1240 nM
same,IC50,second compound 3.16 µM,2050 nM
same,IC50,second compound 10 µM,3290 nM
same,"viability, T/C",[1],70.1%
same,"viability, T/C",[2],57%
same,"viability, T/C",[3],53.7%
same,"viability, T/C",[4],52.5%
same,"viability, T/C",[5],48%
same,"viability, T/C",[6],39%
same,"viability, T/C",[7],75%
same,"viability, T/C",[8],58.9%
same,"viability, T/C",[9],50.3%
same,"viability, T/C",[10],48.8%
same,"viability, T/C",[11],45%
same,"viability, T/C",[12],44.7%
same,"viability, T/C",[13],75%
same,"viability, T/C",[14],62.3%
same,"viability, T/C",[15],49.6%
same,"viability, T/C",[16],44.6%
same,"viability, T/C",[17],51.6%
same,"viability, T/C",[18],37.9%
same,"viability, T/C",[19],74%
same,"viability, T/C",[20],55.3%
same,"viability, T/C",[21],60.9%
same,"viability, T/C",[22],52.6%
same,"viability, T/C",[23],44.8%
same,"viability, T/C",[24],42.1%
same,"viability, T/C",[25],72.9%
same,"viability, T/C",[26],63.3%
same,"viability, T/C",[27],57.9%
same,"viability, T/C",[28],55%
same,"viability, T/C",[29],45.6%
same,"viability, T/C",[30],46.5%
same,"viability, T/C",[31],76.4%
same,"viability, T/C",[32],63.5%
same,"viability, T/C",[33],56.6%
same,"viability, T/C",[34],59.5%
same,"viability, T/C",[35],53.6%
same,"viability, T/C",[36],42.6%
CCc1cc2c(N3CCc4c(cc(Cn5ccnc5)cc4-c4cn(C)nc4C(F)(F)F)C3=O)cc(C)nc2c(OC)n1 + COC1C(OC(N)=O)C(O)C(Oc2ccc3c(O)c(NC(=O)c4ccc(O)c(CC=C(C)C)c4)c(=O)oc3c2C)OC1(C)C,IC50,second compound 0.0316 µM,> 10000 nM
same,IC50,second compound 0.1 µM,> 10000 nM
same,IC50,second compound 0.316 µM,> 10000 nM
same,IC50,second compound 1 µM,> 10000 nM
same,IC50,second compound 3.16 µM,> 10000 nM
same,IC50,second compound 10 µM,> 10000 nM
same,"viability, T/C",[1],91%
same,"viability, T/C",[2],91.9%
same,"viability, T/C",[3],89.5%
same,"viability, T/C",[4],93.2%
same,"viability, T/C",[5],101%
same,"viability, T/C",[6],100%
same,"viability, T/C",[7],93.9%
same,"viability, T/C",[8],91.4%
same,"viability, T/C",[9],91.7%
same,"viability, T/C",[10],101%
same,"viability, T/C",[11],96.9%
same,"viability, T/C",[12],99.5%
same,"viability, T/C",[13],94.5%
same,"viability, T/C",[14],91.4%
same,"viability, T/C",[15],89.8%
same,"viability, T/C",[16],96.1%
same,"viability, T/C",[17],99%
same,"viability, T/C",[18],106%
same,"viability, T/C",[19],98.8%
same,"viability, T/C",[20],83.5%
same,"viability, T/C",[21],97.2%
same,"viability, T/C",[22],96%
same,"viability, T/C",[23],94.2%
same,"viability, T/C",[24],99.8%
same,"viability, T/C",[25],92.4%
same,"viability, T/C",[26],86.8%
same,"viability, T/C",[27],84.2%
same,"viability, T/C",[28],98.5%
same,"viability, T/C",[29],95%
same,"viability, T/C",[30],102%
same,"viability, T/C",[31],93.2%
same,"viability, T/C",[32],102%
same,"viability, T/C",[33],88.5%
same,"viability, T/C",[34],100%
same,"viability, T/C",[35],105%
same,"viability, T/C",[36],106%
C=CCn1c(=O)c2cnc(Nc3ccc(N4CCN(C)CC4)cc3)nc2n1-c1cccc(C(C)(C)O)n1 + Nc1ccc(C#CCN(C(=O)Cc2ncc(C(F)(F)F)cc2C(F)(F)F)c2ccc(F)cc2)nn1,IC50,second compound 0.0316 µM,> 1000 nM
same,IC50,second compound 0.1 µM,> 1000 nM
same,IC50,second compound 0.316 µM,> 1000 nM
same,IC50,second compound 1 µM,> 1000 nM
same,IC50,second compound 3.16 µM,> 1000 nM
same,IC50,second compound 10 µM,> 1000 nM
same,"viability, T/C","second compound 0.0316 µM, first compound 0.00316 µM",94.2%
same,"viability, T/C","second compound 0.0316 µM, first compound 0.01 µM",100%
same,"viability, T/C",[1],103%
same,"viability, T/C",[2],93.2%
same,"viability, T/C",[3],96.1%
same,"viability, T/C",[4],78.2%
same,"viability, T/C","second compound 0.1 µM, first compound 0.00316 µM",105%
same,"viability, T/C","second compound 0.1 µM, first compound 0.01 µM",98%
same,"viability, T/C",[7],98.1%
same,"viability, T/C",[8],99.1%
same,"viability, T/C",[9],89%
same,"viability, T/C",[10],68.8%
same,"viability, T/C","second compound 0.316 µM, first compound 0.00316 µM",104%
same,"viability, T/C","second compound 0.316 µM, first compound 0.01 µM",113%
same,"viability, T/C",[13],108%
same,"viability, T/C",[14],106%
same,"viability, T/C",[15],91%
same,"viability, T/C",[16],71.9%
same,"viability, T/C","second compound 1 µM, first compound 0.00316 µM",97.9%
same,"viability, T/C","second compound 1 µM, first compound 0.01 µM",94.7%
same,"viability, T/C",[19],98.5%
same,"viability, T/C",[20],105%
same,"viability, T/C",[21],87.3%
same,"viability, T/C",[22],74.7%
same,"viability, T/C","second compound 3.16 µM, first compound 0.00316 µM",107%
same,"viability, T/C","second compound 3.16 µM, first compound 0.01 µM",115%
same,"viability, T/C",[25],100%
same,"viability, T/C",[26],112%
same,"viability, T/C",[27],101%
same,"viability, T/C",[28],82.8%
same,"viability, T/C","second compound 10 µM, first compound 0.00316 µM",122%
same,"viability, T/C","second compound 10 µM, first compound 0.01 µM",126%
same,"viability, T/C",[31],109%
same,"viability, T/C",[32],104%
same,"viability, T/C",[33],104%
same,"viability, T/C",[34],81.7%
CC1COCCN1c1cc(C2(O)CC3CCC(C2)O3)c2cnn(-c3ccn[nH]3)c2n1 (stereo not drawn) + Cc1cccc(N(C)C(=O)C2C(O)CCN2c2nc(C)cc(C(F)(F)F)c2C#N)c1,IC50,second compound 0.0316 µM,1990 nM
same,IC50,second compound 0.1 µM,1200 nM
same,IC50,second compound 0.316 µM,1050 nM
same,IC50,second compound 1 µM,1690 nM
same,IC50,second compound 3.16 µM,1740 nM
same,IC50,second compound 10 µM,1940 nM
same,"viability, T/C",[1],92.1%
same,"viability, T/C",[2],83.9%
same,"viability, T/C",[3],64.9%
same,"viability, T/C",[4],60.6%
same,"viability, T/C",[5],44.5%
same,"viability, T/C",[6],33.1%
same,"viability, T/C",[7],94.6%
same,"viability, T/C",[8],78.7%
same,"viability, T/C",[9],60.9%
same,"viability, T/C",[10],52.2%
same,"viability, T/C",[11],44%
same,"viability, T/C",[12],38.6%
same,"viability, T/C",[13],93%
same,"viability, T/C",[14],94%
same,"viability, T/C",[15],64.6%
same,"viability, T/C",[16],54.3%
same,"viability, T/C",[17],47.4%
same,"viability, T/C",[18],39.7%
same,"viability, T/C",[19],96.3%
same,"viability, T/C",[20],83.1%
same,"viability, T/C",[21],66.4%
same,"viability, T/C",[22],52.8%
same,"viability, T/C",[23],47.5%
same,"viability, T/C",[24],37.8%
same,"viability, T/C",[25],98.2%
same,"viability, T/C",[26],87.2%
same,"viability, T/C",[27],62.3%
same,"viability, T/C",[28],58.8%
same,"viability, T/C",[29],45%
same,"viability, T/C",[30],33.6%
same,"viability, T/C",[31],84.6%
same,"viability, T/C",[32],81.8%
same,"viability, T/C",[33],69.7%
same,"viability, T/C",[34],57.3%
same,"viability, T/C",[35],44.9%
same,"viability, T/C",[36],39.1%
